From ChEMBL document CHEMBL1821617, “Monanchocidins B-E: polycyclic guanidine alkaloids with potent antileukemic activities from the sponge Monanchora pulchra” (J Nat Prod, 2011)

tested on: HL-60; assay: Cytotoxicity against human HL60 cells after 72 hrs by MTS assay; format: functional, cell-based; conditions: HL-60, 72 h

Going from `CC[C@@H]1C=CCC[C@]2(C[C@H]3CC[C@H]4[C@@H](C(=O)OCCCCCCCCCCCCCCC[C@@H]5O[C@](O)(CCN)[C@H](O)N(CCCN)C5=O)[C@@]5(CCC[C@H](C)O5)NC(=[N+]34)N2)O1` [MONANCHOCIDIN C] to `CC[C@@H]1C=CCC[C@]2(C[C@H]3CC[C@H]4[C@@H](C(=O)OCCCCCCCCCCCCCC[C@@H]5O[C@](O)(CCN)[C@H](O)N(CCCN)C5=O)[C@@]5(CCC[C@H](C)O5)NC(=[N+]34)N2)O1` [MONANCHOCIDIN B], the IC50 rises from 110 nM to 200 nM (1.8-fold).

`CC/C=C/[C@@H]1CC[C@]2(C[C@H]3CC[C@H]4[C@@H](C(=O)OC(CC)CCCCCCCCCCCCC[C@@H]5O[C@](O)(CCN)[C@H](O)N(CCCN)C5=O)[C@@]5(CCC[C@H](C)O5)NC(=[N+]34)N2)O1` (stereo partly specified) [MONANCHOCIDIN A] and `CC/C=C/[C@@H]1CC[C@]2(C[C@H]3CC[C@H]4[C@@H](C(=O)OC(CC)CCCCCCCCCCCC[C@@H]5O[C@](O)(CCN)[C@H](O)N(CCCN)C5=O)[C@@]5(CCC[C@H](C)O5)NC(=[N+]34)N2)O1` (stereo partly specified) [MONANCHOCIDIN E] are within 1.5-fold of each other in IC50: 540 nM for the first, 650 nM for the second.

First: CC(=O)O[C@H]1C(=O)[C@@]2(C)[C@H]([C@H](OC(=O)c3ccccc3)[C@]3(O)C[C@H](OC(=O)[C@H](O)[C@@H](NC(=O)c4ccccc4)c4ccccc4)C(C)=C1C3(C)C)[C@]1(OC(C)=O)CO[C@@H]1C[C@@H]2O [PACLITAXEL]
Second: CC/C=C/[C@@H]1CC[C@]2(C[C@H]3CC[C@H]4[C@@H](C(=O)OCCCCCCCCCCCCCC[C@@H]5O[C@](O)(CCN)[C@H](O)N(CCCN)C5=O)[C@@]5(CCC[C@H](C)O5)NC(=[N+]34)N2)O1 [MONANCHOCIDIND]
The IC50 of the first is 240-fold lower: 3.4 nM for the first, 830 nM for the second.
